The nature of assay [1]: inhibitors of firefly luciferase expression or activity, dose response, H4 neuroglioma cells, luminescence (AID 1990). Type of assay: functional, cell-based.
Assay [2] concerns Streptococcus sp. 'group A'. Kind of assay: growth inhibition of control SK(-) GAS strain, dose response, counter-screen for streptokinase expression inhibitor project, luminescence, kanamycin, BacTiterGlo, confirmation (AID 1900). Type of assay: functional, organism-based.
A short description of assay [3]: Luminescence Cell-Based Dose Response HTS to Identify Inhibitors of 5'UTR Stem-Loop Driven Prion Protein mRNA Translation in H4 Neuroglioblastoma Cells. [Related pubchem assays: 1827 (Project Summary), 1813 (Primary HTS)]. Type of assay: functional.
Assay [4] in a line: inhibitors of SNCA 5'UTR-driven reporter translation, confirmation, H4 neuroglioma cells, luminescence (AID 1988). Type of assay: functional, cell-based.
Assay [5] relates to Streptococcus. Kind of assay: Group A Streptococcus viability loss, dose response, counter-screen for streptokinase expression inhibitor project, luminescence, BacTiterGlo (AID 1915).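 Also: potency for reduction of bacterial viability or growth.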 Type of assay: functional, organism-based. Background: Counterscreens check selectivity or assay interference.
Assay [6] can be described thus: Luminescence Cell-Based Dose Retest to Confirm Inhibitors of Cancer Stem Cells. [Related pubchem assays (depositor defined):AID2717, AID2721]. Type of assay: functional. The conditions noted are these: Homo sapiens.
Assay [7] concerns the target Cytochrome P450 2C19 (Homo sapiens, UniProt P33261). As to the kind of experiment: Cytochrome panel assay with activity outcomes. Panel member name: p450-cyp2c19 Compounds with AC50 equal or less than 10 uM are considered active. Particulars: read-out: AC50. Type of assay: functional.
Assay [8] is described as follows: Artemis endonuclease inhibitor potency, dose response, biochemical, fluorescence intensity (AID 720701).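 Also: Artemis endonuclease enzyme.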 Type of assay: functional.
The target of assay [9] is Cytochrome P450 2D6 (Homo sapiens, UniProt P10635).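 Also: CYP2D6 member of a cytochrome P450 panel assay.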
Assay [10] deals with RNA-editing ligase 1, mitochondrial (Trypanosoma brucei brucei, UniProt P86926). Kind of assay: TbREL1 ligase inhibitors, dose response, biochemical, fluorescence, Trypanosoma brucei (AID 1117295). Type of assay: functional.
Assay [11] has as its target T1, Replicative DNA helicase DnaB (Mycobacterium tuberculosis, UniProt P9WMR3).
T1 sequence (P9WMR3 whole entry): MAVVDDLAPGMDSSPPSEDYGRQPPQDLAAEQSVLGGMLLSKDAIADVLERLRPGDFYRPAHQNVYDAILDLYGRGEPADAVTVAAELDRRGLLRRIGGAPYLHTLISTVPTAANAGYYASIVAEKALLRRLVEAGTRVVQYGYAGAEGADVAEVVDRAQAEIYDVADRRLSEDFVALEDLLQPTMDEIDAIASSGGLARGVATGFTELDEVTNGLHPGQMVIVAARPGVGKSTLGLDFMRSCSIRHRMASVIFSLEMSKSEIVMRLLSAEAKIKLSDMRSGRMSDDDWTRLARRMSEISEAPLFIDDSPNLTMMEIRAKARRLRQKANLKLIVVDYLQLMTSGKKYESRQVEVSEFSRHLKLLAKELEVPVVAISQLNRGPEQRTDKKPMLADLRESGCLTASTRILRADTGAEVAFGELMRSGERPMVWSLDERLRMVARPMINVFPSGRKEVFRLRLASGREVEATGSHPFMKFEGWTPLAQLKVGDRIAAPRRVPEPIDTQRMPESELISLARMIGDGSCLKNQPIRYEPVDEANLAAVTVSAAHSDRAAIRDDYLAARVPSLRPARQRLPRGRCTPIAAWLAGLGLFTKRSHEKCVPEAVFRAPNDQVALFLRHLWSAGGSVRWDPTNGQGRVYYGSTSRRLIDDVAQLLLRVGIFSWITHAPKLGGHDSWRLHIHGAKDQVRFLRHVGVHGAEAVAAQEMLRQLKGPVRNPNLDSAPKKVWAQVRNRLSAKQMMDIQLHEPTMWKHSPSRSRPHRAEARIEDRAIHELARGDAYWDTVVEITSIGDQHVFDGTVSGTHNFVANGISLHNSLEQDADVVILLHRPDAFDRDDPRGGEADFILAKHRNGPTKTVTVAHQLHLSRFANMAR
Kind of assay: DnaB intein splicing inhibitors, dose response, biochemical, cell-free fluorescence (AID 449749). Type of assay: functional.

Assay [12] concerns the target T2, Protein RecA (Mycobacterium tuberculosis, UniProt P9WHJ3).
T2 sequence (P9WHJ3 whole entry): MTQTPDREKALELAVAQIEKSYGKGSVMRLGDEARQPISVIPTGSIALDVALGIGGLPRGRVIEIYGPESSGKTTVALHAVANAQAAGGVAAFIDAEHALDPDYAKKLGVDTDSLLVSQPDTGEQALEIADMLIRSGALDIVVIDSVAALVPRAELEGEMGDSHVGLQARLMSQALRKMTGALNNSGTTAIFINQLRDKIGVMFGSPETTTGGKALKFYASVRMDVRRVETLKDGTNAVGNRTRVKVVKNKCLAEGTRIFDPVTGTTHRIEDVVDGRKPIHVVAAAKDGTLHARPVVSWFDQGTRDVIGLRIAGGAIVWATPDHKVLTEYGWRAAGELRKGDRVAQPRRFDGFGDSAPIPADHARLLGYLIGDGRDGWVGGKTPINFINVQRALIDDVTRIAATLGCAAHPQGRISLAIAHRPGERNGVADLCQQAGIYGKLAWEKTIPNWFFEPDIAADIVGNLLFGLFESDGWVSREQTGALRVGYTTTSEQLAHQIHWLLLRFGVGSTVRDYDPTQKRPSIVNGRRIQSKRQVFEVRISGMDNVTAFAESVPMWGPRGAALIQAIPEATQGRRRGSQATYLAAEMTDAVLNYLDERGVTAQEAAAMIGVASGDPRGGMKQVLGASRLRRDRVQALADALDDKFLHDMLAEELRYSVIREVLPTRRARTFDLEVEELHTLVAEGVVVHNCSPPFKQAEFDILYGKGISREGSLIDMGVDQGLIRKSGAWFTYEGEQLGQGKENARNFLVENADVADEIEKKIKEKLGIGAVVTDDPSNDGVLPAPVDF
Kind of assay: Fluorescence Cell-Free Homogeneous Dose Retest to Identify Inhibitors of RecA-Intein Splicing Activity. [Related pubchem assays (depositor defined):AID2097, AID2223, AID489010, AID492950]. Type of assay: functional.

The target of assay [13] is Paired box protein Pax-8 (Homo sapiens, UniProt Q06710). As to the kind of experiment: inhibitors of PAX8-driven TPO luciferase reporter, dose response, RMG-I cells, cherry-pick (AID 687027).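 Also: luciferase reporter driven by Pax8 target thyroperoxidase promoter measured by SteadyGlo luminescence.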 Type of assay: functional, cell-based. A general note: In a reporter assay the amount or activity of a reporter protein is the signal.
Assay [14] is described as follows: PAX2 cell-based inhibition, dose response, selectivity assay for PAX8 inhibitor project, plate reader, dry powder samples (AID 743048).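 Also: HEK293 cells carrying a WT1 promoter luciferase reporter driven by expressed Pax2; potency is for inhibition of Pax2 driven reporter signal.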 Type of assay: functional.
The nature of assay [15]: IOSE-T80 ovarian epithelial cell cytotoxicity, dose response, cytotoxicity control for PAX8 inhibitor project, plate reader, dry powder samples (AID 743045). Type of assay: functional, cell-based.
Assay [16] can be described thus: NIH:OVCAR-3 ovarian cancer cell cytotoxicity, dose response, PAX8 inhibitor project, plate reader, dry powder samples (AID 743044). Type of assay: functional, cell-based.
Assay [17] is described as follows: cytotoxicity in COV434 cells, dose response, cytotoxicity control for PAX8 inhibitor project, cell-based, plate reader, dry powder, SA7 (AID 743145). Type of assay: functional.
Assay [18] in a line: cytotoxicity dependent on PAX8, dose response, cell-based, plate reader, dry powder (AID 743049). Type of assay: functional.
The nature of assay [19]: HeLa cell cytotoxicity, dose response, cytotoxicity control, 24 h, plate reader, powder samples, set 3 (AID 651864). Type of assay: functional, cell-based.
Assay [20] is described as follows: A Cell Based Secondary Assay To Explore Cytotoxicity of Compounds that Sensitize Mycobacterium Tuberculosis to Beta-Lactam Antibiotics. Type of assay: functional.
Assay [21] concerns the target Kallikrein-7 (Homo sapiens, UniProt P49862). Kind of assay: Fluorescence Intensity-based biochemical primary high throughput dose response assay to identify activators of kallikrein-7 (K7) zymogen.

The term EC50 denotes the concentration that produces a half-maximal response. What is called AC50 is the midpoint of the concentration-response curve, whichever way the signal moves. As a reminder, the IC50 is the concentration that gives 50% inhibition. The CC50 is the concentration that lowers cell viability or growth by half.

Active and inactive are the calls of the source.

Cytochrome P450 2D6, sequence (P10635 whole entry): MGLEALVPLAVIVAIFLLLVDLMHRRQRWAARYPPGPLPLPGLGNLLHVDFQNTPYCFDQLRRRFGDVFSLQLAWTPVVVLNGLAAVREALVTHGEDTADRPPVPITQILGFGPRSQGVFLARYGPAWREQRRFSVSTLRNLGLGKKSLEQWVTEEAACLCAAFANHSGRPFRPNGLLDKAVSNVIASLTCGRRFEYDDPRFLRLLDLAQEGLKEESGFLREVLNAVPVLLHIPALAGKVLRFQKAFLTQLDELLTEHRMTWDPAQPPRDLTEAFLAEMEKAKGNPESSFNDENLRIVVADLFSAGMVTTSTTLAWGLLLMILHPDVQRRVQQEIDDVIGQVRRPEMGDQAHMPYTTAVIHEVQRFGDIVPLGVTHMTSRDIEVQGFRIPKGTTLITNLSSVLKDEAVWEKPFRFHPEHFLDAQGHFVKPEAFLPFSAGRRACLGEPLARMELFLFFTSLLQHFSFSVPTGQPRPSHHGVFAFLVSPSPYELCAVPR
Kallikrein-7, sequence (P49862 whole entry): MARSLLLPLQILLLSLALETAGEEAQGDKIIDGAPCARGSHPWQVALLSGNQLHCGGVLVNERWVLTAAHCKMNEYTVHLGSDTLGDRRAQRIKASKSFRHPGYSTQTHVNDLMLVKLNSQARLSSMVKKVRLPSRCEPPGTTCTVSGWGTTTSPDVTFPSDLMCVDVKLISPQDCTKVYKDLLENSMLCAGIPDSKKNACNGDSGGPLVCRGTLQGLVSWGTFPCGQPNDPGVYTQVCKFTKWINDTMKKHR
RNA-editing ligase 1, mitochondrial, sequence (P86926 whole entry): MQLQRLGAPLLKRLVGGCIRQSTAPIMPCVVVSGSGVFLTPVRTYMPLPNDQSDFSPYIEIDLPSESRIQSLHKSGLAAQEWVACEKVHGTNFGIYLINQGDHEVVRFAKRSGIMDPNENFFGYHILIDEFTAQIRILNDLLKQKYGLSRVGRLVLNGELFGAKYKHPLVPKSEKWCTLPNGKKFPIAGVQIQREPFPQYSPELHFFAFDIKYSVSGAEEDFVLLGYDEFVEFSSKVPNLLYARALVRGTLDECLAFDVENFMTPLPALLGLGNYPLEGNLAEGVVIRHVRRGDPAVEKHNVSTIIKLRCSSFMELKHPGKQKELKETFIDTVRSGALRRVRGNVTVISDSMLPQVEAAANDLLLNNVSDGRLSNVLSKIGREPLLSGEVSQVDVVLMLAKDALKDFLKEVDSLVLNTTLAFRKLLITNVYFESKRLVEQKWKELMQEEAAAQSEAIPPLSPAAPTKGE
Cytochrome P450 2C19, sequence (P33261 whole entry): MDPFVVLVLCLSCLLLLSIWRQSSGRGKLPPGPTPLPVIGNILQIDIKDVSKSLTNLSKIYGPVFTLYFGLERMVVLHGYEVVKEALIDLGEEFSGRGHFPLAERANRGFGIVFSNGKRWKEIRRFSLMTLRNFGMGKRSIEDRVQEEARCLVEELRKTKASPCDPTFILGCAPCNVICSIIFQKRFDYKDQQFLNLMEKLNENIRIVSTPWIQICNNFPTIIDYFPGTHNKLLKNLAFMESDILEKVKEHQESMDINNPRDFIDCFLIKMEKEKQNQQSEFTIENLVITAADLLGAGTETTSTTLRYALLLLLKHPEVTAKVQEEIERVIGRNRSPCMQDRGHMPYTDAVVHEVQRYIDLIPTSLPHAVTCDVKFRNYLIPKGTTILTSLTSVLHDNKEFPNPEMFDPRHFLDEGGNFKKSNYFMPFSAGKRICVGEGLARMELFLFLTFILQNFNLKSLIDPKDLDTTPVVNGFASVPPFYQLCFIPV
Paired box protein Pax-8, sequence (Q06710 whole entry): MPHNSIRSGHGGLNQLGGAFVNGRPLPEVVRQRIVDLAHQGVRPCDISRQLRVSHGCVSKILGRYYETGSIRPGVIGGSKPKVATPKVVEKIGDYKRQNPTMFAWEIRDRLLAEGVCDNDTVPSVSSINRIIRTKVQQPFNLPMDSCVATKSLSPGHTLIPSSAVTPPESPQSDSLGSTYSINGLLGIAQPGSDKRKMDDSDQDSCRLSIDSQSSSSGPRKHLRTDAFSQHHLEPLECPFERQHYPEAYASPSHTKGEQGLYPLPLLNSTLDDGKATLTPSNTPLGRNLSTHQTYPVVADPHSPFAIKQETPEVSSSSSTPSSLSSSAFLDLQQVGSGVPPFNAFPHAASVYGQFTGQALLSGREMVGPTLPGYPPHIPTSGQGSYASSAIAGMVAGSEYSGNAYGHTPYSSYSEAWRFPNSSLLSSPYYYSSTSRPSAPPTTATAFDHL

Take `Nc1nn2c(O)cc(-c3ccccc3)nc2c1N=Nc1ccccc1`: the EC50 was > 60 µM (not active) in assay [1]; 1.67 µM (active) in assay [2]; 12.7 µM (active) in [3]; 10.5 µM (active) in assay [4]; 4.43 µM (active) in assay [5]. Besides, the figures for the AC50 in [6], in assay [7] and in [9] were 1.62 µM (active), 28.2 µM (inconclusive) and 28.2 µM (inconclusive), respectively. Also, the IC50 in assay [8] is 19.9 µM (active).
Regarding `C=CCNCCOCCOc1ccc(Cl)cc1C(C)(C)C`, the IC50 in assay [10] was > 96.6 µM (inactive).
In the case of `O=C1/C(=C/c2ccccc2F)SC(=S)N1CC(=O)N1CCCCC1c1cccnc1` (stereo unspecified), the AC50 in assay [11] is 17.9 µM (active); in [13], 5.04 µM (active); in assay [14], > 100 µM (inactive); in [15] it was 43.5 µM (active); in assay [16] it was 26.3 µM (active); in assay [17], 38.3 µM (active). For the same compound, in [18], the AC50 was 44.9 µM (active). For the same compound, the EC50 in [12] was 18.6 µM (active).
In the case of `c1ccc(Cn2nnc(NCc3ccc(N4CCCC4)cc3)n2)cc1`, the AC50 in [19] was > 160 µM (inactive).
`COc1ccc(OC(=O)c2cccc([N+](=O)[O-])c2)c(C(=O)/C=C/c2cccs2)c1`: in assay [20], the CC50 is 39.6 µM (active). Besides, the EC50 in [21] is 46 µM (inactive).

For the origin of these results see ChEMBL document CHEMBL1201862, “PubChem BioAssay data set” (2004).
